Laboratory results reported in US12263155B2, “Combinations of monoamine oxidase inhibitors and serotonin receptor agonists and their therapeutic use” (Remedi, Inc., priority 2022, dated 2025).

Legend:
rat liver MAO-B = molecular target: T1, rat liver MAO-B (Rattus norvegicus, UniProt P19643); experiment: In vitro inhibition of rat liver MAO-B; assay type: biochemical; conditions: 10 μM [14C]-PEA
T1 construct: from tissue; host or cells: rat liver
T1 sequence (P19643 1-520): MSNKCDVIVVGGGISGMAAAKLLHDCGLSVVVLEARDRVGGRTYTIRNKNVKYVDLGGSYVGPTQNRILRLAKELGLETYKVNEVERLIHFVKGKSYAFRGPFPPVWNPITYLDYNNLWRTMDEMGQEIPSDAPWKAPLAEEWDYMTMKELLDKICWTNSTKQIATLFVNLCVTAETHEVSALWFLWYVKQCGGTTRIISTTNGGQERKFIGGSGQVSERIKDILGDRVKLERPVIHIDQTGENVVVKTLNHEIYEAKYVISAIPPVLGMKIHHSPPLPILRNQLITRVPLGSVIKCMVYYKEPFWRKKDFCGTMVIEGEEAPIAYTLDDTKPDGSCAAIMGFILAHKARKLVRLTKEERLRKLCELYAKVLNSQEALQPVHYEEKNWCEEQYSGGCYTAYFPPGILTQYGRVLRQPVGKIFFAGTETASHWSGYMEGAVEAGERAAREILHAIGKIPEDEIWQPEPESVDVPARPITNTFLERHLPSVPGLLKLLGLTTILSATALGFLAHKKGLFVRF
Procedure: (§1) Methods: The soluble extract of the mitochondrial enriched fraction (P2 pellet), which was prepared from brain homogenates of male Sprague-Dawley rats, served as the source of MAO-A enzymatic activity. The P2 fraction was prepared and was stored frozen until being thawed for use on the day of assay. Final concentrations of 50 μM [^14C]-serotonin (5-HT) and 10 μM [^14C]-phenylethylamine (PEA) were employed as specific substrates for MAO-A and MAO-B, respectively. Test compound inhibition was based on competition for oxidation of these radio-labeled substrates. MAO-A assay specificity was enhanced by inclusion of 0.1 μM deprenyl to prevent substrate oxidation by MAO-B. Likewise, MAO-B assays included 0.1 μM clorgyline to block MAO-A activity. […] Inhibition of enzymatic activities was expressed as IC50 and as the Ki, which was calculated using the Cheng-Prusoff equation.

rat liver MAO-A = molecular target: T2, rat liver MAO-A (Rattus norvegicus, UniProt P21396); experiment: In vitro inhibition of rat liver MAO-A; assay type: biochemical
T2 construct: from tissue; host or cells: rat liver
T2 sequence (P21396 1-526): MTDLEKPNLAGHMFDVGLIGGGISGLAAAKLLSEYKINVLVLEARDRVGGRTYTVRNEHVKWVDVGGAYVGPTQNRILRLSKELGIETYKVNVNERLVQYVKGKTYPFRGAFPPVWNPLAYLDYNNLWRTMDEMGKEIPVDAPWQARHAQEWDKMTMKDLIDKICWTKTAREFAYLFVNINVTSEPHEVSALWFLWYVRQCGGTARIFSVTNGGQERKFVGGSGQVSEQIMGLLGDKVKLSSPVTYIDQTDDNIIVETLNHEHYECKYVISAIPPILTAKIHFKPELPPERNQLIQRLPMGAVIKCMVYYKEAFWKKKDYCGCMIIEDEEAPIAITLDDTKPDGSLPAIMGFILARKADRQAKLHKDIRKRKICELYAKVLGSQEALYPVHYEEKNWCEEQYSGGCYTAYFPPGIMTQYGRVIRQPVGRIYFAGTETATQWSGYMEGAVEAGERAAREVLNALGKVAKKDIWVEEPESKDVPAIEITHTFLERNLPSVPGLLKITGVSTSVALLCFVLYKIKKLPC
Procedure: as §1, with “Methods: The soluble extract of the mitochondrial enriched fraction (P2 pellet), which was prepared from brain homogenates of male Sprague-Dawley rats, served as the source of MAO-A enzymatic activity.” left out

rat brain MAO-B = molecular target: T3, rat brain MAO-B (Rattus norvegicus, UniProt P19643); experiment: In vitro inhibition of rat brain MAO-B; assay type: biochemical; conditions: 10 μM [14C]-PEA, all concentrations tested
T3 construct: from tissue; host or cells: rat brain
T3 sequence (P19643 1-520): T1 sequence (P19643 1-520)
Procedure: as §1

[1] = Fed versus fasted pharmacokinetics of modified release tablet; assay type: in vivo; conditions: human, plasma, oral, 175 mg; fed and fasted; read-out: half-life, mean, range over treatments
Procedure: Methods: A total of 18 subjects were to participate and receive a single dose of CX157 Modified Release Tablet, 175 mg in fed or fasted states according to a randomization schedule. There was a six to seven-day washout period between the two study drug administrations.
Each CX157 Modified Release Tablet, 175 mg is stored long-term at controlled room temperature conditions [25° C. (77° F.), excursions 15-30° C. (59-86° F.)]; the tablets are a modified caplet shape, pale pink in color, and plain on both sides.

O=S1(=O)c2ccc(F)cc2Oc2cc(OCC(F)(F)F)ccc21 [CX157, 3-fluoro-7(2,2,2-trifluorethoxy)phenoxathiine-10,10-dioxide]
inhibition of rat liver MAO-B (rat liver MAO-B): did not inhibit | Ki for CX157/Ki for RO-41-1049 (rat liver MAO-A; Liver MAO-A): 0.126 | IC50 (rat liver MAO-A; rat liver, 50 μM [14C]-5-HT): 2.22 nM | Ki (rat liver MAO-A; rat liver, Cheng-Prusoff): 0.91 nM | inhibition of rat brain MAO-B (rat brain MAO-B): did not inhibit | half-life [1]: 20.6 to 23.5 h
